One assay concerns the target T1, PDGFRβ (Homo sapiens, UniProt P09619).
T1 construct: 200-300 ng purified cytoplasmic domain PDGFR-b protein (Millipore); purchased Millipore
Kind of assay: PDGFRβ Kinase Assay (poly-Glu-Tyr ELISA). The assay is classed as biochemical. The following applies: purified cytoplasmic domain PDGFR-b protein, 36 μM ATP. Here is the method: Biochemical PDGFRβ kinase assays were performed in 96 well microtiter plates that were coated overnight with 75 μg of poly-Glu-Tyr (4:1) in 10 mM Phosphate Buffered Saline (PBS), pH 7.4. The coated plates were washed with 2 mls per well PBS+0.05% Tween-20 (PBS-T), blocked by incubation with PBS containing 1% BSA, then washed with 2 mls per well PBS-T prior to starting the reaction. Reactions were carried out in 100 μL reaction volumes containing 36 μM ATP in kinase buffer (50 mM Hepes buffer pH 7.4, 20 mM MgCl2, 0.1 mM MnCl2 and 0.2 mM Na3VO4). Test compounds were reconstituted in 100% DMSO and added to the reaction to give a final DMSO concentration of 5%. Reactions were initiated by the addition 20 ul per well of kinase buffer containing 200-300 ng purified cytoplasmic domain PDGFR-b protein (Millipore). Following a 60 minute incubation at 30° C., the reactions were washed 2 mls per well PBS-T. […] of a monoclonal anti-phosphotyrosine antibody-peroxidase conjugate diluted 1:10,000 in PBS-T was added to the wells for 30 minutes. Following a 2 mls per well wash with PBS-Tween-20, 100 μl of O-Phenylenediamine Dihydrochloride in phosphate-citrate buffer, containing urea hydrogen peroxide, was added to the wells for 7-10 minutes as a colorimetric substrate for the peroxidase. The reaction was terminated by the addition of 100 μl of 2.5N H2SO4 to each well and read using a microplate ELISA reader set at 492 nm. IC50 values for compound inhibition were calculated directly from graphs of optical density (arbitrary units) versus compound concentration following subtraction of blank values.

The next assay deals with VEGFR1 (Homo sapiens, UniProt P17948). Kind of assay: VEGFR1 Kinase. The format is biochemical.
For assay [1], the target named is T2, VEGFR2 (Homo sapiens, UniProt P35968). Kind of assay: VEGFR2 Cellular Assay (FLIPR, VEGF induced increases in intracellular calcium in HUVEC). The assay is classed as cell-based. Also noted: host or cells: HUVEC. As to conditions: VEGF165 stimulation (10 ng/mL), Fluo-4. Here is the method:
Automated FLIPR (Fluorometric Imaging Plate Reader) technology was used to screen for inhibitors of VEGF induced increases in intracellular calcium levels in fluorescent dye loaded endothelial cells. HUVEC (human umbilical vein endothelial cells) (Clonetics) were seeded in 384-well fibronectin coated black-walled plates overnight @ 37° C./5% CO2. Cells were loaded with calcium indicator Fluo-4 for 45 minutes at 37° C. Cells were washed 2 times (El×405, Biotek Instruments) to remove extracellular dye. For screening, cells were pre-incubated with test agents for 30 minutes, at a single concentration (10 uM) or at concentrations ranging from 0.0001 to 10.0 uM followed by VEGF165 stimulation (10 ng/mL). Changes in fluorescence at 516 nm were measured simultaneously in all 384 wells using a cooled CCD camera. Data were generated by determining max-min fluorescence levels for unstimulated, stimulated, and drug treated samples. IC50 values for test compounds were calculated from % inhibition of VEGF stimulated responses in the absence of inhibitor.
Target sequence in this assay (P35968 20-1356): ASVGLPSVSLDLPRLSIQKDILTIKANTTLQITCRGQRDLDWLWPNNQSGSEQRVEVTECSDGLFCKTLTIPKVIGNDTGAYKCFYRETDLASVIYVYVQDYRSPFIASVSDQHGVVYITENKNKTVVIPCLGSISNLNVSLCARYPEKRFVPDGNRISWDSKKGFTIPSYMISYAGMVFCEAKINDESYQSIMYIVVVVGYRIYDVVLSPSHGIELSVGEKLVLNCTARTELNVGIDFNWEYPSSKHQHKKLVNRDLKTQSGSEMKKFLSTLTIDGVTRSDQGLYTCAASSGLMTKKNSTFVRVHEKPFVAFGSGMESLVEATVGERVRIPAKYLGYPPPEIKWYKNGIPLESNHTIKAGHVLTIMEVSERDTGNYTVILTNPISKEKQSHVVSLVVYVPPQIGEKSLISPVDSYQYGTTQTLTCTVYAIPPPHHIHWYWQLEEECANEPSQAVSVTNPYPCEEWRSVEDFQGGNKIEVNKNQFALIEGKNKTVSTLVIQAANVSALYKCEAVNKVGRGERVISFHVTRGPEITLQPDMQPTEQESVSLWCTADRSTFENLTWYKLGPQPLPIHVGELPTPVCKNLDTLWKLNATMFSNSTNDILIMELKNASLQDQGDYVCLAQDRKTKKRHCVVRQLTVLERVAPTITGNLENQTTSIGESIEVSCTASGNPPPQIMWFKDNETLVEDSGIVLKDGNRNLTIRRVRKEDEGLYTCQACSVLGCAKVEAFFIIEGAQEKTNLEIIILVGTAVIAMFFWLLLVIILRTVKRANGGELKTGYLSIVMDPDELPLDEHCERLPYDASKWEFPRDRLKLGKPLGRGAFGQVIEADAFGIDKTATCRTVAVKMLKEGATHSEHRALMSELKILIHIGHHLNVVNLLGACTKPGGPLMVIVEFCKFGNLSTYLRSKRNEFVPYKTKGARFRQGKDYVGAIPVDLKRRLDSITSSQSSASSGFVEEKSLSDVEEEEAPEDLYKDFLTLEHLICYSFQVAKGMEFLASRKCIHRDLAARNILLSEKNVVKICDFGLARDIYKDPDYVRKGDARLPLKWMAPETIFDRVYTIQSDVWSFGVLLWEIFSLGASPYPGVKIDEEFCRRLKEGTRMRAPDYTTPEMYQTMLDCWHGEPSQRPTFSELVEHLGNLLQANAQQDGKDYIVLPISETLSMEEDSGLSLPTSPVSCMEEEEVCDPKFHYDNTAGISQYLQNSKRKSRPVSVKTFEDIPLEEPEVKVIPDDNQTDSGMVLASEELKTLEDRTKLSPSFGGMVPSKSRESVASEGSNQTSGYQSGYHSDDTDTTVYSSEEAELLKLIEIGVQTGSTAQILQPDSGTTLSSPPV

Assay [2] deals with T2, VEGFR2. Kind of assay: VEGFR2 Kinase Assay (biochemical KDR kinase, poly-Glu-Tyr ELISA). Details: 200-300 ng purified cytoplasmic domain KDR protein; purchased BPS Bioscience. The following applies: purified cytoplasmic domain KDR protein, 2.7 μM ATP. On the procedure: Biochemical KDR kinase assays were performed in 96 well microtiter plates that were coated overnight with 75 μg/well of poly-Glu-Tyr (4:1) in 10 mM Phosphate Buffered Saline (PBS), pH 7.4. The coated plates were washed with 2 mls per well PBS+0.05% Tween-20 (PBS-T), blocked by incubation with PBS containing 1% BSA, then washed with 2 mls per well PBS-T prior to starting the reaction. Reactions were carried out in […] reaction volumes containing 2.7 μM ATP in kinase buffer (50 mM Hepes buffer pH 7.4, 20 mM MgCl2, 0.1 mM MnCl2 and 0.2 mM Na3VO4). Test compounds were reconstituted in 100% DMSO and added to the reaction to give a final DMSO concentration of 5%. Reactions were initiated by the addition 20 ul per well of kinase buffer containing 200-300 ng purified cytoplasmic domain KDR protein (BPS Bioscience, San Diego, Calif.). Following a 15 minute incubation at 30° C., the reactions were washed 2 mls per well PBS-T. 100 μl of a monoclonal anti-phosphotyrosine antibody-peroxidase conjugate diluted 1:10,000 in PBS-T was added to the wells for 30 minutes. Following a 2 mls per well wash with PBS-Tween-20, 100 μl of O-Phenylenediamine Dihydrochloride in phosphate-citrate buffer, containing urea hydrogen peroxide, was added to the wells for 7-10 minutes as a colorimetric substrate for the peroxidase. The reaction was terminated by the addition of 100 μl of 2.5NH2SO4 to each well and read using a microplate ELISA reader set at 492 nm. IC50 values for compound inhibition were calculated directly from graphs of optical density (arbitrary units) versus compound concentration following subtraction of blank values.
Target sequence in this assay (P35968 786-1356 limits assumed): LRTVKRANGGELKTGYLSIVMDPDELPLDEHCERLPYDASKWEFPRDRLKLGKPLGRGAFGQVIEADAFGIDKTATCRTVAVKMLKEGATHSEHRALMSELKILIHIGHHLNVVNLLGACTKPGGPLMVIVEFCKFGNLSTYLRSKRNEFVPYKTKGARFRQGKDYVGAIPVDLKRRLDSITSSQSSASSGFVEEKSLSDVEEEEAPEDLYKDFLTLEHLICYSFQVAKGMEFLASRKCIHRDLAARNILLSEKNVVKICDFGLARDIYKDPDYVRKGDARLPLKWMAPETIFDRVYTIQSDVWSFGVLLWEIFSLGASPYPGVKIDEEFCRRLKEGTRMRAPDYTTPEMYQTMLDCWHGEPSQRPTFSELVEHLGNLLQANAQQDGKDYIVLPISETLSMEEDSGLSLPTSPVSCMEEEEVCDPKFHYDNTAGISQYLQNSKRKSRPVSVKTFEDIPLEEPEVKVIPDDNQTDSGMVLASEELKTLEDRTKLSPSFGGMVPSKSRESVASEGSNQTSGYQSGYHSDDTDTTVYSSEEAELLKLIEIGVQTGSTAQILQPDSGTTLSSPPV

Each structure is given as a SMILES string.

VEGFR1, sequence (P17948 27-1338, species assumed): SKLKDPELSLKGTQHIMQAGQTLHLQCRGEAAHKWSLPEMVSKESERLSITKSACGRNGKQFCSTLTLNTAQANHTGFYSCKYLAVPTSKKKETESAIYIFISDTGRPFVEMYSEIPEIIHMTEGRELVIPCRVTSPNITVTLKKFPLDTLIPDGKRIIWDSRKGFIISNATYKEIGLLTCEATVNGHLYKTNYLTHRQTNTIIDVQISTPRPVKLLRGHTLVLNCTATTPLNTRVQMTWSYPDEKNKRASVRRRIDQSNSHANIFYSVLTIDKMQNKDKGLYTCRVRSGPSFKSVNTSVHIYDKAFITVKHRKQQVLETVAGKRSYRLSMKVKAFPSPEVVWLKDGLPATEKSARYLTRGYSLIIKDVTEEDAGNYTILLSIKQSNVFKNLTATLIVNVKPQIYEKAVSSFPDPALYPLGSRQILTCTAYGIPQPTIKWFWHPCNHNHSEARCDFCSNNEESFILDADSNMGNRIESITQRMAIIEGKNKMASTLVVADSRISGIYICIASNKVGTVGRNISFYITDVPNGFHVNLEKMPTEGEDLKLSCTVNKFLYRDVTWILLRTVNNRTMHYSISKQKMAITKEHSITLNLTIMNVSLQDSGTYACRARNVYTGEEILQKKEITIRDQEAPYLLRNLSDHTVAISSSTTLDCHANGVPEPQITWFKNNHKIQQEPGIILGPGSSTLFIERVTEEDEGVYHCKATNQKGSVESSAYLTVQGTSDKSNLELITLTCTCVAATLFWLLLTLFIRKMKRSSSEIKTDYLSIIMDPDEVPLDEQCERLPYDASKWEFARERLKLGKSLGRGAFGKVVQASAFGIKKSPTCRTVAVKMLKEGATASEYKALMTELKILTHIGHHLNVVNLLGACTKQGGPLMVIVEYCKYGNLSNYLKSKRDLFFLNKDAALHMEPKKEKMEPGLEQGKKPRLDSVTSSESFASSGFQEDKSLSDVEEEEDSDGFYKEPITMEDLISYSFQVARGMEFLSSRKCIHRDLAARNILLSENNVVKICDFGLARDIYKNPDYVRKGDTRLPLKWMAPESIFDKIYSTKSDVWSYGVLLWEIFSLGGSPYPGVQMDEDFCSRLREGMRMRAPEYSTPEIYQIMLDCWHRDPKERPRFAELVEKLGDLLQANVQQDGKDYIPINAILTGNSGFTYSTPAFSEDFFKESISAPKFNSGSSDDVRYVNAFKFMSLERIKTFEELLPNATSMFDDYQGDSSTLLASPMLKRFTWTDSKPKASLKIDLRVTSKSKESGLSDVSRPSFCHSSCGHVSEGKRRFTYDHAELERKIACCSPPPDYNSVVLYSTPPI
T1 sequence (P09619 554-1106 limits assumed): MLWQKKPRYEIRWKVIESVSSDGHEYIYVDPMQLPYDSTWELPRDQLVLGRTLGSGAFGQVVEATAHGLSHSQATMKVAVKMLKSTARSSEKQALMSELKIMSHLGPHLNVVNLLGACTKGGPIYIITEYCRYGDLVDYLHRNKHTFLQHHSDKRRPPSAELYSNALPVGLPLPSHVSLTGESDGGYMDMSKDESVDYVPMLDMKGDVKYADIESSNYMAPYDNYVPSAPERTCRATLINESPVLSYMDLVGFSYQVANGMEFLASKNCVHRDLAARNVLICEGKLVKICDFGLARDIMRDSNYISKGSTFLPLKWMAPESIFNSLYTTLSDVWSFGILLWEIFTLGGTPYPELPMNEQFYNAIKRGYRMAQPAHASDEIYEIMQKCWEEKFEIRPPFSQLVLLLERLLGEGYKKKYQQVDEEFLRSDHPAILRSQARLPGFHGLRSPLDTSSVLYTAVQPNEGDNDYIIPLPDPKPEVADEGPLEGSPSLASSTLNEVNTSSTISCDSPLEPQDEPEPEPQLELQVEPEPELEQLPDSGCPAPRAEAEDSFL

With `COC(=O)CCCCS(=O)(CCCCC(=O)OC)=NC(=O)c1cnc(N)c(C#Cc2cccc(NC(=O)c3cc(C)ccc3F)c2)c1` [Example 7, Dimethyl 5,5′-(N-{[6-amino-5-({3-[(2-fluoro-5-methylbenzoyl)amino]phenyl}ethynyl)pyridin-3-yl]carbonyl}sulfonimidoyl)dipentanoate], the half-inhibitory concentration (IC50) on PDGFRβ was 29 nM; at VEGFR1, 13 nM; at VEGFR2 [1] it was 49 nM; against VEGFR2 [2] it was 11 nM.
In the case of `COC(=O)CCCCS(=O)(CCCCC(=O)OC)=NC(=O)c1cnc(N)c(C#Cc2cccc(C(=O)Nc3cc(C)ccc3F)c2)c1` [Example 14, Dimethyl 5,5′-[N-({6-amino-5-[(3-{[(2-fluoro-5-methylphenyl)amino]carbonyl}phenyl)ethynyl]pyridin-3-yl}carbonyl)sulfonimidoyl]dipentanoate], the IC50 is 50 nM at PDGFRβ, 14 nM on VEGFR1, under 1 nM at VEGFR2 [1] and 11 nM against VEGFR2 [2].
For `COC(=O)CCCCS(=O)(CCCCC(=O)OC)=NC(=O)c1cnc(N)c(C#Cc2cccc(NC(=O)c3occc3C)c2)c1` [Example 2, Dimethyl 5,5′-(N-{[6-amino-5-({3-[(3-methyl-2-furoyl)amino]phenyl}ethynyl)pyridin-3-yl]carbonyl}sulfonimidoyl)dipentanoate], in that order: 176 nM, 10 nM, 3 nM and 3 nM.

The record behind these values is patent publication US8558002B2, “Sulfoximines as kinase inhibitors” (Allergan, Inc., priority 2006, dated 2013).
